Columns and labels:
[1] = test system: methicillin resistant S. aureus Mu50 strain (S. aureus ATCC700699) biofilm; test: Biofilm susceptibility to vancomycin, combination treatment regimen (mature biofilm treated with compound plus vancomycin); format: cell-based; conditions: for Combin. (100 μM): percentage Colony Forming Units (CFU's) per biofilm: compound 100 μM together with VAN 20 μg/ml on mature biofilm; for Combin. (100 μM): percentage Colony Forming Units (CFU's) per biofilm / Combin. (25 μM): percentage Colony Forming Units (CFU's) per biofilm: compared to the untreated (negative) control; for EC50: concentration needed to get 50% killing compared to antibiotic alone (VAN 20 μg/ml) and complete killing, read-out: Combin. (EC50); for Combin. (25 μM): percentage Colony Forming Units (CFU's) per biofilm: compound 25 μM together with VAN 20 μg/ml on mature biofilm
Procedure, shortened: (§1)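 Mu50 biofilms from 10^8 CFU/ml inoculum (4 h adhesion, then 20 h, 37 °C). Pre-treatment: compound (0.1-250 μM) present during biofilm formation, then vancomycin 20 μg/ml alone 24 h; combination: mature biofilm given vancomycin 20 μg/ml plus compound 24 h. Survivors counted by plating versus vancomycin alone.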

[2] = test system: methicillin resistant S. aureus Mu50 strain (S. aureus ATCC700699) biofilm; test: Biofilm susceptibility to vancomycin, pre-treatment regimen (biofilm formed in presence of compound, then vancomycin); format: cell-based; conditions: for Pretreat (100 μM): percentage Colony Forming Units (CFU's) per biofilm: compound 100 μM during biofilm formation; for Pretreat (100 μM): percentage Colony Forming Units (CFU's) per biofilm / Pretreat. (25 μM): percentage Colony Forming Units (CFU's) per biofilm: then VAN 20 μg/ml, compared to the untreated (negative) control; for EC50: concentration needed to get 50% killing compared to antibiotic alone (VAN 20 μg/ml) and complete killing, read-out: Pretreat. (EC50); for Pretreat. (25 μM): percentage Colony Forming Units (CFU's) per biofilm: compound 25 μM during biofilm formation
Procedure, shortened: as §1

SMILES | Combin. (100 μM): percentage Colony Forming Units (CFU's) per biofilm [1] [percentage] | Pretreat (100 μM): percentage Colony Forming Units (CFU's) per biofilm [2] [percentage] | EC50 [1] [µM] | EC50 [2] [µM] | Combin. (25 μM): percentage Colony Forming Units (CFU's) per biofilm [1] [percentage] | Pretreat. (25 μM): percentage Colony Forming Units (CFU's) per biofilm [2] [percentage]
O=C(NC[C@H]1OC[C@@](O)(CNC(=O)c2ccccc2)[C@@H]1O)c1cccc(Cl)c1 [compound 162, N-(((2R,3R,4S)-4-(benzamidomethyl)-3,4-dihydroxytetrahydrofuran-2-yl)methyl)-3-chlorobenzamide] | 29.06 | 24.07 |  |  |  | 
O=C(NC[C@H]1OC[C@@](O)(CNC(=O)c2ccccc2)[C@@H]1O)c1cccnc1 [compound 167, N-(((2R,3R,4S)-4-(benzamidomethyl)-3,4-dihydroxytetrahydrofuran-2-yl)methyl)nicotinamide] | 15.22 | 9.813 |  |  |  | 
O=C(NC[C@H]1OC[C@@](O)(CNC(=O)c2ccccc2Cl)[C@@H]1O)c1ccccc1Cl [compound 249, N,N′-(((2R,3R,4S)-3,4-dihydroxytetrahydrofuran-2,4-diyl)bis(methylene))bis(2-chlorobenzamide)] | 13.59 | 6.67 | 28.4 | 5.36 |  | 
O=C(NC[C@]1(O)CO[C@H](CNC(=O)c2cccnc2Cl)[C@H]1O)c1ccccc1 [compound 199, N-(((2R,3R,4S)-4-(benzamidomethyl)-3,4-dihydroxytetrahydrofuran-2-yl)methyl)-2-chloronicotinamide] | 65.56 | 68.76 | > 250 | > 250 |  | 
O=C(NC[C@H]1OC[C@@](O)(CNC(=O)c2ccc(-c3ccccc3)cc2)[C@@H]1O)c1ccnnc1 [compound 253, N-(((2R,3R,4S)-4-([1,1′-biphenyl]-4-carboxamidomethyl)-3,4-dihydroxytetrahydrofuran-2-yl)methyl)pyridazine-4-carboxamide] | 22.50 | 4.25 | 45.4 | 8.54 |  | 
O=C(NC[C@H]1OC(O)[C@@](O)(CNC(=O)c2cccc(O)c2)[C@@H]1O)c1cccc(O)c1 (stereo partly drawn) [compound 19, N,N′-(((2R,3R,4R)-3,4,5-trihydroxytetrahydrofuran-2,4-diyl)bis(methylene))bis(3-hydroxybenzamide)] | 27.23 | 19.78 | 52.3 | 38.5 |  | 
O=C(NC[C@]1(O)CO[C@H](CNS(=O)(=O)c2ccc(Cl)cc2)[C@H]1O)c1ccccc1 [compound 217, N-(((3S,4R,5R)-5-(((4-chlorophenyl)sulfonamido)methyl)-3,4-dihydroxytetrahydrofuran-3-yl)methyl)benzamide] | 14.85 | 14.04 | 27.8 | 23.5 |  | 
O=C(NC[C@]1(O)CO[C@H](CNC(=O)c2ccccc2Cl)[C@H]1O)c1cncnc1 [compound 248, N-(((3S,4R,5R)-5-((2-chlorobenzamido)methyl)-3,4-dihydroxytetrahydrofuran-3-yl)methyl)pyrimidine-5-carboxamide] |  |  |  |  | 65.41 | 64.01
O=C(NC[C@H]1OC(O)[C@@](O)(CNC(=O)c2cc(O)cc(O)c2)[C@@H]1O)c1cc(O)cc(O)c1 (stereo partly drawn) [compound 18, N,N′-(((2R,3R,4R)-3,4,5-trihydroxytetrahydrofuran-2,4-diyl)bis(methylene))bis(3,5-dihydroxybenzamide)] | 79.55 | 37.58 | 231 | 116 |  | 
Cn1nccc1C(=O)NC[C@H]1OC[C@@](O)(CNC(=O)c2ccccc2)[C@@H]1O [compound 209, N-(((2R,3R,4S)-4-(benzamidomethyl)-3,4-dihydroxytetrahydrofuran-2-yl)methyl)-1-methyl-1H-pyrazole-5-carboxamide] | 21.74 | 22.47 | 23.5 | 29.3 |  | 
O=C(CCc1ccccc1)NC[C@]1(O)CO[C@H](CNC(=O)c2ccccc2Cl)[C@H]1O [compound 260, 2-chloro-N-(((2R,3R,4S)-3,4-dihydroxy-4-((3-phenylpropanamido)methyl)tetrahydrofuran-2-yl)methyl)benzamide] | 71.12 | 57.01 |  |  |  | 
O=C(NC[C@]1(O)CO[C@H](CNC(=O)c2c(Cl)cncc2Cl)[C@H]1O)c1ccccc1 [compound 195, N-(((2R,3R,4S)-4-(benzamidomethyl)-3,4-dihydroxytetrahydrofuran-2-yl)methyl)-3,5-dichloroisonicotinamide] | 18.55 | 18.31 | 9.26 | 7.2 |  | 
CN(C[C@H]1OC[C@@](O)(CNC(=O)c2ccccc2)[C@@H]1O)C(=O)c1ccccc1 [compound 261, N-(((2R,3R,4S)-4-(benzamidomethyl)-3,4-dihydroxytetrahydrofuran-2-yl)methyl)-N-methylbenzamide] | 10.02 | 6.09 | 24.3 | 8.5 |  | 
O=C(NC[C@H]1OC[C@@](O)(CNC(=O)c2ccccc2)[C@@H]1O)c1cncnc1 [compound 205, N-(((2R,3R,4S)-4-(benzamidomethyl)-3,4-dihydroxytetrahydrofuran-2-yl)methyl)pyrimidine-5-carboxamide] | 16.51 | 6.699 |  |  |  | 
O=C(NC[C@H]1OC(O)[C@@](O)(CNC(=O)c2ccc(O)c(O)c2)[C@@H]1O)c1ccc(O)c(O)c1 (stereo partly drawn) [compound 17, N,N′-(((2R,3R,4R)-3,4,5-trihydroxytetrahydrofuran-2,4-diyl)bis(methylene))bis(3,4-dihydroxybenzamide)] | 61.16 | 55.76 | 169 | 182 |  | 
O=C(NC[C@@H]1OC[C@@](O)(CNC(=O)c2ccccc2)[C@@H]1O)c1ccccc1 [compound 270, N,N′-(((2S,3R,4S)-3,4-dihydroxytetrahydrofuran-2,4-diyl)bis(methylene))dibenzamide] | 55.70 | 51.80 | > 250 | 224 |  | 
O=C(NC[C@]1(O)CO[C@H](CNC(=O)c2ccccc2Cl)[C@H]1O)c1ccc(F)cc1 [compound 233, 2-chloro-N-(((2R,3R,4S)-4-((4-fluorobenzamido)methyl)-3,4-dihydroxytetrahydrofuran-2-yl)methyl)benzamide] |  |  |  |  | 91.63 | 88.61
O=C(NC[C@H]1OC[C@@](O)(CNC(=O)c2ccccc2)[C@@H]1O)c1ccc(Cl)c(Cl)c1 [compound 182, N-(((2R,3R,4S)-4-(benzamidomethyl)-3,4-dihydroxytetrahydrofuran-2-yl)methyl)-3,4-dichlorobenzamide] | 33.81 | 42.13 |  |  |  | 
O=C(Cc1ccccc1)NC[C@]1(O)CO[C@H](CNC(=O)c2ccccc2Cl)[C@H]1O [compound 259, 2-chloro-N-(((2R,3R,4S)-3,4-dihydroxy-4-((2-phenylacetamido)methyl)tetrahydrofuran-2-yl)methyl)benzamide] | 71.25 | 55.12 |  |  |  | 
O=C(NC[C@]1(O)CO[C@H](CNS(=O)(=O)c2ccccc2)[C@H]1O)c1ccccc1 [compound 215, N-(((3S,4R,5R)-3,4-dihydroxy-5-(phenylsulfonamidomethyl)tetrahydrofuran-3-yl)methyl)benzamide] | 31.29 | 22.23 |  |  |  | 
